Source: paper PMC6545111 (Journal of medicinal chemistry, 2018)
Values joined by “and” are separate entries in the source; they are usually repeats but may differ in a detail not shown here. Equal values may be shown once. Read-outs that look alike come from different tables or passages of the source.

Columns and labels:
[1] = Tissue distribution in mice bearing RS4; type: in vivo, SCID mice; conditions: IV, 5mg/kg; for Concentration of QCA570 in Heart / Concentration of QCA570 in Intestine / Concentration of QCA570 in Kidney / Concentration of QCA570 in Liver / Concentration of QCA570 in Lung / Concentration of QCA570 in Tumor / Concentration of QCA570 in plasma: individual mice
GSPT1 protein = GSPT1 protein (Homo sapiens, UniProt P15170); experiment: Western blotting of GSPT1 in MV4; type: cell-based; conditions: MV4;11 and RS4;11 cells
[2] = tested on: BRD2, BRD3 and BRD4 proteins in RS4;11 cells; conditions: 3 h treatment
RS4;11 cells = experiment: Apoptosis by flow cytometry; type: cell-based, human
[3] = tested on: cleaved PARP and cleaved Caspase 3 in RS4;11 cells; experiment: Western blotting of cleaved PARP / caspase 3 in RS4; type: cell-based, human; conditions: RS4;11 cell line, 24 h treatment
MV4;11 xenograft tumors = conditions: 3 times per week for 2 weeks, intravenous
MV4;11 cells = experiment: Apoptosis by flow cytometry; type: cell-based, human; conditions: MV4;11, as low as 1 nM, 24 h treatment
[4] = tested on: cleaved PARP and cleaved Caspase 3 in MV4;11 cells; experiment: Western blotting of cleaved PARP / caspase 3 in MV4; type: cell-based, human; conditions: MV4;11 cell line
RS4;11 xenograft tumors = experiment: Anti-tumor efficacy, RS4; type: in vivo, SCID mice
[5] = tested on: BRD2, BRD3 and BRD4 proteins in MV4;11 cells; experiment: Western blotting of BET proteins in MV4; type: cell-based; conditions: 3 h treatment
[6] = tested on: c-Myc protein in RS4;11 cells; experiment: Western blotting of c-Myc in RS4; type: cell-based, human; conditions: RS4;11 cell line
[7] = tested on: BRD2, BRD3, BRD4, c-Myc and cleaved PARP in RS4;11 xenograft tumors; experiment: Pharmacodynamic analysis in RS4; type: in vivo, SCID mice
[8] = tested on: MV4;11, MOLM-13 and RS4;11 acute leukemia cell lines; experiment: Cell growth inhibition, statements covering the three leukemia cell lines; type: cell-based, human
[9] = tested on: c-Myc protein in MV4;11 cells; experiment: Western blotting of c-Myc in MV4; type: cell-based, human; conditions: MV4;11 cell line
MOLM-13 cells = experiment: Apoptosis by flow cytometry; type: cell-based, human; conditions: MOLM-13, as low as 1 nM, 24 h treatment
[10] = RS4;11 xenograft, all treatment groups

GSPT1 protein, sequence (P15170 whole entry): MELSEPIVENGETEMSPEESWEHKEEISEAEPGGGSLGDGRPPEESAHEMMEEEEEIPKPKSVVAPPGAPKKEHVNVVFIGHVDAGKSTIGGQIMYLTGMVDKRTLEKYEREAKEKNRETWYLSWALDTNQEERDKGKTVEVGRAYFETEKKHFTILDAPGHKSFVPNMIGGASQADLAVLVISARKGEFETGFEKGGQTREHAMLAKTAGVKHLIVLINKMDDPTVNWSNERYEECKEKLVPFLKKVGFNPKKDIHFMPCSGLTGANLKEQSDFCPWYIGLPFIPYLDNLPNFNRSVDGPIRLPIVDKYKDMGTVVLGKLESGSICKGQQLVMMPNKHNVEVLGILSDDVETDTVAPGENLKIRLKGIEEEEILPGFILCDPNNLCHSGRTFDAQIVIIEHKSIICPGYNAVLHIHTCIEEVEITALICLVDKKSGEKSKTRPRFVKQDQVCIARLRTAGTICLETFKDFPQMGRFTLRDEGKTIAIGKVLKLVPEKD

In the case of “3-(4-(5-(4-((3-Benzyl-9-methyl-4H,6H-thieno[2,3-e][1,2,4]triazolo[3,4-c][1,4]oxazepin-2-yl)ethynyl)-1H-pyrazol-1-yl)pent-1-yn-1-yl)-1-oxoisoindolin-2-yl)piperidine-2,6-dione [Compound 35]”, the “Concentration of QCA570 in Heart” value ([1]; 1 h, listed as QCA570, 5 mg/kg) is reported as 373 ng/g and 288 ng/g, the “Concentration of QCA570 in Intestine” value ([1]; 1 h, listed as QCA570, 5 mg/kg) is reported as 1283 ng/g and 1009 ng/g and the “Concentration of QCA570 in Kidney” value ([1]; 1 h, listed as QCA570, 5 mg/kg) is reported as 649 ng/g and 675 ng/g. For the same substance, the “Concentration of QCA570 in Liver” value ([1]; 1 h, listed as QCA570, 5 mg/kg) was 1227 ng/g and 1720 ng/g, the “Concentration of QCA570 in Lung” value ([1]; 1 h, listed as QCA570, 5 mg/kg) was 1041 ng/g and 696 ng/g and the “Concentration of QCA570 in Tumor” value ([1]; 1 h, listed as QCA570, 5 mg/kg) was 642 ng/g and 405 ng/g. For the same substance, the “Concentration of QCA570 in plasma” value ([1]; 1 h, listed as QCA570, 5 mg/kg) was 1575 ng/mL and 2360 ng/mL, the “Concentration of QCA570 in Heart” value ([1]; 3 h, listed as QCA570, 5 mg/kg) was 17 ng/g and 22 ng/g and the “Concentration of QCA570 in Intestine” value ([1]; 3 h, listed as QCA570, 5 mg/kg) was 50 ng/g and 92 ng/g. The “Concentration of QCA570 in Kidney” value ([1]; 3 h, listed as QCA570, 5 mg/kg) was 40 ng/g and 49 ng/g, the “Concentration of QCA570 in Liver” value ([1]; 3 h, listed as QCA570, 5 mg/kg) was 57 ng/g and 209 ng/g and the “Concentration of QCA570 in Lung” value ([1]; 3 h, listed as QCA570, 5 mg/kg) was 35 ng/g and 89 ng/g. For the same substance, the “Concentration of QCA570 in Tumor” value ([1]; 3 h, listed as QCA570, 5 mg/kg) was 177 ng/g and 199 ng/g, the “Concentration of QCA570 in plasma” value ([1]; 3 h, listed as QCA570, 5 mg/kg) was 47 ng/mL and 263 ng/mL and the “Concentration of QCA570 in Heart” value ([1]; 6 h) was “BLQ”. The “Concentration of QCA570 in Intestine” value ([1]; 6 h) was “BLQ”, the “Concentration of QCA570 in Kidney” value ([1]; 6 h) was “BLQ” and the “Concentration of QCA570 in Liver” value ([1]; 6 h) was “BLQ”. The “Concentration of QCA570 in Lung” value ([1]; 6 h) was “BLQ”, the “Concentration of QCA570 in plasma” value ([1]; 6 h) was “BLQ” and the “Concentration of QCA570 in Tumor” value ([1]; 6 h, listed as QCA570, 5 mg/kg) was 87.9 ng/g and 68.7 ng/g. For the same substance, the “Concentration of QCA570 in Heart, mean” value ([1]; Mean (1h)) was 331 ng/g, the “Concentration of QCA570 in Intestine, mean” value ([1]; Mean (1h)) was 1146 ng/g and the “Concentration of QCA570 in Kidney, mean” value ([1]; Mean (1h)) was 662 ng/g. For the same substance, the “Concentration of QCA570 in Liver, mean” value ([1]; Mean (1h)) was 1473 ng/g, the “Concentration of QCA570 in Lung, mean” value ([1]; Mean (1h)) was 868 ng/g and the “Concentration of QCA570 in Tumor, mean” value ([1]; Mean (1h)) was 524 ng/g. The “Concentration of QCA570 in plasma, mean” value ([1]; Mean (1h)) was 1968 ng/mL, the “Concentration of QCA570 in Heart, mean” value ([1]; Mean (3h)) was 19 ng/g and the “Concentration of QCA570 in Intestine, mean” value ([1]; Mean (3h)) was 71 ng/g. The “Concentration of QCA570 in Kidney, mean” value ([1]; Mean (3h)) was 44 ng/g, the “Concentration of QCA570 in Liver, mean” value ([1]; Mean (3h)) was 133 ng/g and the “Concentration of QCA570 in Lung, mean” value ([1]; Mean (3h)) was 62 ng/g. For the same substance, the “Concentration of QCA570 in Tumor, mean” value ([1]; Mean (3h)) was 188 ng/g, the “Concentration of QCA570 in plasma, mean” value ([1]; Mean (3h)) was 155 ng/mL and the “Concentration of QCA570 in Heart, mean” value ([1]; Mean (6 h)) was “BLQ”. For the same substance, the “Concentration of QCA570 in Intestine, mean” value ([1]; Mean (6 h)) was “BLQ”, the “Concentration of QCA570 in Kidney, mean” value ([1]; Mean (6 h)) was “BLQ” and the “Concentration of QCA570 in Liver, mean” value ([1]; Mean (6 h)) was “BLQ”. For the same substance, the “Concentration of QCA570 in Lung, mean” value ([1]; Mean (6 h)) was “BLQ”, the “Concentration of QCA570 in Tumor, mean” value ([1]; Mean (6 h)) was 78 ng/g and the “Concentration of QCA570 in plasma, mean” value ([1]; Mean (6 h)) was “BLQ”. The “effect on GSPT1 protein” value (GSPT1 protein) was “no effect”, the “degradation of BRD2, BRD3 and BRD4 proteins” value ([2]; 0.5 nM) was “complete degradation” and the “concentration effective in reducing BRD2 protein level” value [2] was 30 to 100 pM. The “lowest concentration very effective in reducing BRD3 and BRD4 protein levels” value [2] was at most 10 pM, the apoptosis induction (RS4;11 cells; RS4;11, 0.1 nM, 24 h treatment) was “minimal effect” and the cells undergoing apoptosis (RS4;11 cells; RS4;11, 0.1 nM, 48 h treatment) was over 40%. For the same substance, the cells undergoing apoptosis (RS4;11 cells; RS4;11, 0.3–10 nM, 24 h treatment) was 15–30%, the “caspase 3 cleavage” value [3] was “not detected” and the “lowest concentration inducing robust cleavage of PARP” value [3] was 0.1 to 0.3 nM. The tumor response (MV4;11 xenograft tumors; 1 mg/kg) was “complete tumor regression”, the tumor response (MV4;11 xenograft tumors; 5 mg/kg) was “complete and long-lasting tumor regression” and the cells undergoing apoptosis (MV4;11 cells) was over 60%. The “lowest concentration inducing caspase 3 activation” value [4] was at most 0.3 nM, the “lowest concentration inducing robust cleavage of PARP” value ([4]; 24 h treatment) was 0.1 to 0.3 nM and the tumor response (RS4;11 xenograft tumors; RS4;11 xenograft, 5 mg/kg weekly) was “complete tumor growth inhibition but not tumor regression”. The tumor response (RS4;11 xenograft tumors; RS4;11 xenograft, 1, 2.5 and 5 mg/kg, 3 times per week for 3 weeks) was “complete and long-lasting tumor regression”, the animal weight loss (RS4;11 xenograft tumors; [10]) was “minimal animal weight loss” and the signs of toxicity (RS4;11 xenograft tumors; [10]) was “no other signs of toxicity”. For the same substance, the “concentration effective in reducing BRD2 protein level” value [5] was 30 to 100 pM, the “lowest concentration very effective in reducing BRD3 and BRD4 protein levels” value [5] was at most 10 pM and the “lowest concentration very effective in reducing c-Myc protein levels” value [6] was at most 10 pM. For the same substance, the “levels of BRD2, BRD3 and BRD4 proteins in tumor tissue” value ([7]; single intravenous dose 1 and 5 mg/kg, 1 h and 6 h time-points) was “dramatically reduces”, the “c-Myc protein levels in tumor tissue” value ([7]; single intravenous dose 1 and 5 mg/kg, all time points (1, 6, 24 h)) was “reduces c-Myc protein levels dramatically” and the “cleavage of PARP in tumor tissue” value ([7]; single intravenous dose, 6 h and 24 h time-points) was “very effective in inducing cleavage of PARP”. For the same substance, the “reduction of BRD4 protein level at 24 h, 5 mg/kg compared with 1 mg/kg” value ([7]; single intravenous dose, 24 h time-point) was “more effective”, the “times more potent than ZBC260 in cell growth inhibition” value ([8]; MV4;11 and MOLM-13 cell lines) was over 10 times and the “times more potent than ARV-771 in cell growth inhibition” value ([8]; each of the three cell lines) was over 10 times. The “times more potent than ARV-825 in cell growth inhibition” value ([8]; each of the three cell lines) was over 10 times, the “times more potent than dBET1 in cell growth inhibition” value ([8]; each of the three cell lines) was > 1,000 times and the “lowest concentration very effective in reducing c-Myc protein levels” value [9] was at most 30 pM. The cells undergoing apoptosis (MOLM-13 cells) was over 60%.
